Literature values as cited in article PMC6971042, “Exploring ion-ion preferences through structure-property correlations: amino acid-derived, bis(guanidinium) disiloxane salts” (Scientific Reports, 2020).

Design: method as in PMID 26714187
Conditions: qualitative

C[Si](C)(CCCNC(=N)N)O[Si](C)(C)CCCNC(=N)N.O=[N+]([O-])O [1,3-bis(3-guanidinopropyl)-tetramethyldisiloxane nitrate]
water solubility: abnormally low

C[Si](C)(CCCNC(=N)N)O[Si](C)(C)CCCNC(=N)N [GUA, 1,3-bis(3-guanidinopropyl)-tetramethyldisiloxane dichloride]
water solubility: fully water-miscible
